Results reported in patent US20260078119A1, “DEGRADER COMPOUNDS AND USES THEREOF” (Bristol-Myers Squibb Company, priority 2024, published 2026).

Experiments:
FAK = target: T1, FAK (Homo sapiens, UniProt Q05397); experiment: FAK-HiBiT Degradation Assay; assay type: cell-based; settings: for DC50: JHH-4-FAK-HiBiT clone d01 cells, two hours incubation, 10-point dose response, 3-fold dilution starting at 1 μM, Nano-Glo HiBiT luminescence, read-out: FAK HiBiT EC50; for FAK HiBiT Ymin: lower limit of the four parameter fit (value A), Ymax derived using DMSO control, JHH-4-FAK-HiBiT cells, two hours
T1 construct: homozygous knock-in of a HiBiT tag (Promega Corporation, Madison, WI) to the C-terminus of the FAK gene in its natural genomic locus; endogenous in cells; host or cells: JHH-4-FAK-HiBiT clone d01 (CRISPR-Cas9 knock-in at the endogenous locus)
How it was run: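 JHH-4 cells with homozygous CRISPR knock-in of C-terminal HiBiT on endogenous FAK, treated 2 h at 37 °C with compounds in 10-point 3-fold series from 1 μM. HiBiT lytic luminescence read; EC50 from four-parameter logistic fit, Ymax set by DMSO control, Ymin as lower fit limit.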

CAL-51 cells = experiment: CAL-51 Cell Proliferation Assay; assay type: cell-based; settings: for EC50: Homo sapiens, 120 hours incubation, 10-point dose response, 4-fold dilutions starting at 10 μM, Cell-Titer-Glo, read-out: CAL-51 Prolif EC50; for CAL-51 Prolif Ymin: minimal percent of DMSO control observed in the concentrations tested (Ymin-obs), 120 hours
How it was run: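 Cells seeded at 350/well in RPMI complete medium onto 10-point, 4-fold compound dilutions from 10 μM (0.1% DMSO), in duplicate, and grown 120 h at 37 °C. CellTiter-Glo luminescence, blank-subtracted and normalised to DMSO, was fitted with a four-parameter logistic to give EC50; Ymin-obs is the lowest observed percent of DMSO control.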

T1 sequence (Q05397 whole entry): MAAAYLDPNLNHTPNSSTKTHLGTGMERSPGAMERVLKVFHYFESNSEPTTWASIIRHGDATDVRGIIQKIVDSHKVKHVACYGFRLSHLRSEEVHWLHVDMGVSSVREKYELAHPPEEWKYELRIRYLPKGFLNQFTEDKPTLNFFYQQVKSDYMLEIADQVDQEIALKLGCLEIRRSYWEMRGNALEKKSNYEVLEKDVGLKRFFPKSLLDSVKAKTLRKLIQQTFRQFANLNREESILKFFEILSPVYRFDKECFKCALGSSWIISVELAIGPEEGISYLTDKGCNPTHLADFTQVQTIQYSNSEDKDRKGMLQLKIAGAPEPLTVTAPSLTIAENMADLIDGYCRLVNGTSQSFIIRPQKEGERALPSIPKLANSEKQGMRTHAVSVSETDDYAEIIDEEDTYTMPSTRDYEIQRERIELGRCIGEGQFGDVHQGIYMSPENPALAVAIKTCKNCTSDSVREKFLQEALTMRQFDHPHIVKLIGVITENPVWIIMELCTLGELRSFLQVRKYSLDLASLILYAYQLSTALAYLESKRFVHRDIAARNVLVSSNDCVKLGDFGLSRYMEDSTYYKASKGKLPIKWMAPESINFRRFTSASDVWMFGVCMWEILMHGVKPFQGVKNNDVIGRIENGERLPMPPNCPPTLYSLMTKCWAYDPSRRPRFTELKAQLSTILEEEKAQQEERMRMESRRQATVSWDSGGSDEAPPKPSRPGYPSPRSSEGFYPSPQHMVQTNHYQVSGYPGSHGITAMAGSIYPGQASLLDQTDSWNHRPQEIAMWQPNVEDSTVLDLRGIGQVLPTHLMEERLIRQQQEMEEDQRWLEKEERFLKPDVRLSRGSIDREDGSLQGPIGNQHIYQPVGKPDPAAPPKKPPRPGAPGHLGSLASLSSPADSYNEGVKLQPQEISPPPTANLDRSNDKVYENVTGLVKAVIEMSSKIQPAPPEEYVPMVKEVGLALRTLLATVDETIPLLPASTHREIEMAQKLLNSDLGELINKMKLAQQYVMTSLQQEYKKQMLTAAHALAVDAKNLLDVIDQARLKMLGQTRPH

Row | Structure (SMILES) | DC50 (FAK) [nM] | FAK HiBiT Ymin (FAK) | EC50 (CAL-51 cells) [nM] | CAL-51 Prolif Ymin (CAL-51 cells)
1 | O=C1CCC(N2Cc3cc(Cn4ncc5c(-c6ncc(F)cc6Cl)cc(N6CC[C@H](O)C6)nc54)ccc3C2=O)C(=O)N1 (stereo partly drawn) [Example 100, 3-(5-{[4-(3-chloro-5-fluoropyridin-2-yl)-6-[(3S)-3-hydroxypyrrolidin-1-yl]-1H-pyrazolo[3,4-b]pyridin-1-yl]methyl}-1-oxo-2,3-dihydro-1H-isoindol-2-yl)piperidine-2,6-dione] | 26.8 | 9.53 | 13.4 | 29.27
2 | C[C@]1(O)CCN(c2cc(-c3ncc(C(F)(F)F)cc3Cl)c3cnn(Cc4ccc5c(c4)CN([C@H]4CCC(=O)NC4=O)C5=O)c3n2)C1 [Example 102, (3S)-3-[5-({4-[3-chloro-5-(trifluoromethyl)pyridin-2-yl]-6-[(3S)-3-hydroxy-3-methylpyrrolidin-1-yl]-1H-pyrazolo[3,4-b]pyridin-1-yl}methyl)-1-oxo-2,3-dihydro-1H-isoindol-2-yl]piperidine-2,6-dione] | 29.6 | 12.65 | 10.9 | 35.36
3 | CC(C)(O)c1ccc(-c2cc(N3CCC3)nc3c2cnn3Cc2ccc3c(c2)CN(C2CCC(=O)NC2=O)C3=O)c(Cl)c1 (stereo not shown) [Example 105, 3-(5-{[6-(azetidin-1-yl)-4-[2-chloro-4-(2-hydroxypropan-2-yl)phenyl]-1H-pyrazolo[3,4-b]pyridin-1-yl]methyl}-1-oxo-2,3-dihydro-1H-isoindol-2-yl)piperidine-2,6-dione] | 35.7 | 27.68 | 4.91 | 55.87
4 | CN(c1cc(-c2ncc(C(F)(F)F)cc2Cl)c2cnn(Cc3ccc4c(c3)CN([C@H]3CCC(=O)NC3=O)C4=O)c2n1)[C@H]1C[C@](C)(O)C1 [Example 107, (3S)-3-[5-({4-[3-chloro-5-(trifluoromethyl)pyridin-2-yl]-6-{methyl[(1s,3r)-3-hydroxy-3-methylcyclobutyl]amino}-1H-pyrazolo[3,4-b]pyridin-1-yl}methyl)-1-oxo-2,3-dihydro-1H-isoindol-2-yl]piperidine-2,6-dione] | 38.3 | 18.14 | 8.44 | 44.59
5 | Cc1cc(C(F)(F)F)cnc1-c1cc(N2CC[C@H](O)C2)nc2c1cnn2Cc1ccc2c(c1)CN([C@H]1CCC(=O)NC1=O)C2=O [Example 110, (3S)-3-[5-({6-[(3S)-3-hydroxypyrrolidin-1-yl]-4-[3-methyl-5-(trifluoromethyl)pyridin-2-yl]-1H-pyrazolo[3,4-b]pyridin-1-yl}methyl)-1-oxo-2,3-dihydro-1H-isoindol-2-yl]piperidine-2,6-dione] | 45.3 | 14.00 | 186 | 10.20
6 | CCOc1ccc(Cl)c(-c2cc(N3CC(F)C3)nc3c2cnn3Cc2ccc3c(c2)CN([C@H]2CCC(=O)NC2=O)C3=O)n1 [Example 111, (3S)-3-(5-{[4-(3-chloro-6-ethoxypyridin-2-yl)-6-(3-fluoroazetidin-1-yl)-1H-pyrazolo[3,4-b]pyridin-1-yl]methyl}-1-oxo-2,3-dihydro-1H-isoindol-2-yl)piperidine-2,6-dione] | 45.8 | 73.08 | 551 | 60.03
7 | O=C1CC[C@H](N2Cc3cc(Cn4ncc5c(-c6ncc(C(F)(F)F)cc6Cl)cc(N6CC(O)C6)nc54)ccc3C2=O)C(=O)N1 [Example 113, (3S)-3-[5-({4-[3-chloro-5-(trifluoromethyl)pyridin-2-yl]-6-(3-hydroxyazetidin-1-yl)-1H-pyrazolo[3,4-b]pyridin-1-yl}methyl)-1-oxo-2,3-dihydro-1H-isoindol-2-yl]piperidine-2,6-dione] | 51.8 | 21.00 | 9.28 | 38.05
8 | O=C1CCC(N2Cc3cc(Cn4ncc5c(-c6ncc(F)cc6Cl)cc(N6CC[C@@H](O)C6)nc54)ccc3C2=O)C(=O)N1 (stereo partly drawn) [Example 114, 3-(5-{[4-(3-chloro-5-fluoropyridin-2-yl)-6-[(3R)-3-hydroxypyrrolidin-1-yl]-1H-pyrazolo[3,4-b]pyridin-1-yl]methyl}-1-oxo-2,3-dihydro-1H-isoindol-2-yl)piperidine-2,6-dione] | 55.7 | 14.15 | 35 | 40.82
9 | C[C@]1(O)CCN(c2cc(-c3ccc(C#N)cc3F)c3cnn(Cc4ccc5c(c4)CN(C4CCC(=O)NC4=O)C5=O)c3n2)C1 (stereo partly drawn) [Example 115, 4-(1-{[2-(2,6-dioxopiperidin-3-yl)-1-oxo-2,3-dihydro-1H-isoindol-5-yl]methyl}-6-[(3S)-3-hydroxy-3-methylpyrrolidin-1-yl]-1H-pyrazolo[3,4-b]pyridin-4-yl)-3-fluorobenzonitrile] | 65.3 | 53.22 | 118 | 59.97
10 | CC(C)(O)c1cnc(-c2cc(N3CC(F)C3)nc3c2cnn3Cc2ccc3c(c2)CN([C@H]2CCC(=O)NC2=O)C3=O)c(Cl)c1 [Example 119, (3S)-3-[5-({4-[3-chloro-5-(2-hydroxypropan-2-yl)pyridin-2-yl]-6-(3-fluoroazetidin-1-yl)-1H-pyrazolo[3,4-b]pyridin-1-yl}methyl)-1-oxo-2,3-dihydro-1H-isoindol-2-yl]piperidine-2,6-dione] | 84.9 | 40.36 | 27 | 59.05
11 | CN(c1cc(-c2ncc(C(F)(F)F)cc2Cl)c2cnn(Cc3ccc4c(c3)CN([C@H]3CCC(=O)NC3=O)C4=O)c2n1)[C@H]1C[C@@H](O)C1 [Example 120, (3R)-3-[5-({4-[3-chloro-5-(trifluoromethyl)pyridin-2-yl]-6-{methyl[(1s,3s)-3-hydroxycyclobutyl]amino}-1H-pyrazolo[3,4-b]pyridin-1-yl}methyl)-1-oxo-2,3-dihydro-1H-isoindol-2-yl]piperidine-2,6-dione] | 87.1 | 12.66 | 3.03 | 28.57
12 | N#Cc1cnc(-c2cc(N3CC[C@H](O)C3)nc3c2cnn3Cc2ccc3c(c2)CN([C@H]2CCC(=O)NC2=O)C3=O)c(F)c1 [Example 121, 6-[1-({2-[(3S)-2,6-dioxopiperidin-3-yl]-1-oxo-2,3-dihydro-1H-isoindol-5-yl}methyl)-6-[(3S)-3-hydroxypyrrolidin-1-yl]-1H-pyrazolo[3,4-b]pyridin-4-yl]-5-fluoropyridine-3-carbonitrile] | 95.4 | 40.50 | 1360 | 75.47
13 | O=C1CC[C@H](N2Cc3cc(Cn4ncc5c(-c6ncc(F)cc6F)cc(N6CC[C@H](O)C6)nc54)ccc3C2=O)C(=O)N1 [Example 123, (3S)-3-(5-{[4-(3,5-difluoropyridin-2-yl)-6-[(3S)-3-hydroxypyrrolidin-1-yl]-1H-pyrazolo[3,4-b]pyridin-1-yl]methyl}-1-oxo-2,3-dihydro-1H-isoindol-2-yl)piperidine-2,6-dione] | 109 | 45.54 | 28.3 | 78.23
